The subject of the experiment is NCI-60 cell lines. It counts as cell-based, human.

Entries after “also recorded” stand apart in the source; their conditions may differ.

As for CRRSSLL, the “Cell Line (NCI-60 cell line the peptide and its motif are associated with)” value is reported as “SK-MEL-2 Melanoma”. On to LPLLRGI, for which the “Cell Line with which the peptide (and its tripeptide motif) is associated” value (shortened to “Cell Line with which the peptide”) is recorded as “HL-60-Leukemia”. SSRGGSS: the “Cell Line (NCI-60 cell line the peptide is associated with)” value is reported as “MALME-3M Melanoma”.

Turning to TSLLSFR, the “Cell Line with which the peptide” value is “CCRF-CEM Leukemia”. As for QGRVNVK, the “Cell Line (NCI-60 cell line the peptide is associated with)” value is recorded as “SNB-19 CNS; also recorded: SF-539 CNS” and the “Cell Line with which the peptide” value is on record as “H226-Lung”.

For the substance FTRGGLS, the “Cell Line (NCI-60 cell line the peptide is associated with)” value was “SNB-75 CNS”. Consider VLVEGAV, for which the “Cell Line the peptide is associated with (peptide recovered from phage library selection on this NCI-60 cell line)” value is recorded as “TK-10 Renal”. Turning to FRAASLL, the “Cell Line the peptide is associated with (peptide recovered from phage library selection on this NCI-60 cell line)” value is on record as “MDA-MB-231 Breast”. Turning to FMGAGFA, the “Cell Line with which the peptide” value is reported as “HL-60-Leukemia”. As for PGVLREP, the “Cell Line the peptide is associated with (peptide recovered from phage library selection on this NCI-60 cell line)” value is reported as “A498 Renal”. Turning to ALVSRRG, the “Cell Line with which the peptide” value was “Molt-4-Leukemia”.

For RRVSCDL, the “Cell Line with which the peptide” value is “Hop-62-Lung”. For the substance RKEALRV, the “Cell Line the peptide is associated with (peptide recovered from phage library selection on this NCI-60 cell line)” value was “CAIK-1 Renal”.

For GGASLTQ, the “Cell Line (NCI-60 cell line the peptide is associated with)” value was “SF-295 CNS”.

In the case of AGRRLRD, the “Cell Line the peptide is associated with (peptide recovered from phage library selection on this NCI-60 cell line)” value was “NCI/ADR-RES Breast”. For SERSSLG, the “Cell Line with which the peptide” value is recorded as “Hop-92-Lung”. Take AGSVTEQ: the “Cell Line the peptide is associated with (peptide recovered from phage library selection on this NCI-60 cell line)” value is given as “UO31 Renal”. For GVRYLRT, the “Cell Line (NCI-60 cell line the peptide is associated with)” value was “HCT-116 Colon”. As to GQGAASL, the “Cell Line with which the peptide” value was “H522-Lung”. Turning to FGIGRGV, the “Cell Line (NCI-60 cell line the peptide and its motif are associated with)” value is listed as “SK-MEL-5 Melanoma”.

Turning to FGLGSSR, the “Cell Line with which the peptide” value was “Hop-62-Lung”. With LLRAGVR, the “Cell Line the peptide is associated with (peptide recovered from phage library selection on this NCI-60 cell line)” value is given as “UO31 Renal”.

In the case of GGLRVGG, the “Cell Line (NCI-60 cell line the peptide and its motif are associated with)” value was “PC3 Prostate”. For the substance GPSSAVE, the “Cell Line (NCI-60 cell line the peptide and its motif are associated with)” value is given as “OVCAR-5 Ovarian”.

Consider GLREAHV, for which the “Cell Line (NCI-60 cell line the peptide and its motif are associated with)” value is listed as “UACC62 Melanoma”. As for PNRRVSA, the “Cell Line with which the peptide” value is on record as “Hop-92-Lung”. As to AAVGTAL, the “Cell Line the peptide is associated with (peptide recovered from phage library selection on this NCI-60 cell line)” value is “RXF393 Renal”.

WFSWLVS: the “Cell Line with which the peptide” value is “H460-Lung”. SAGLLPS: the “Cell Line (NCI-60 cell line the peptide and its motif are associated with)” value is “OVCAR-5 Ovarian”. As to ADIGAGG, the “Cell Line with which the peptide” value is on record as “HL-60-Leukemia”. WSGGLNV: the “Cell Line with which the peptide” value is recorded as “H322-Lung”. AGLQHAV: the “Cell Line (NCI-60 cell line the peptide is associated with)” value is given as “HCT-15 Colon”. Regarding RRLSYRD, the “Cell Line with which the peptide” value was “RPMI-8226-Leukemia”. Turning to GDLRVSV, the “Cell Line the peptide is associated with (peptide recovered from phage library selection on this NCI-60 cell line)” value is “UO31 Renal”. For the substance RDLGGRW, the “Cell Line the peptide is associated with (peptide recovered from phage library selection on this NCI-60 cell line)” value is listed as “MCF-7 Breast”. With GGRVRGG, the “Cell Line (NCI-60 cell line the peptide and its motif are associated with)” value is given as “OVCAR-4 Ovarian”. Regarding GGSAWWG, the “Cell Line (NCI-60 cell line the peptide and its motif are associated with)” value was “DU-145 Prostate”. In the case of LSSGLVS, the “Cell Line with which the peptide” value is recorded as “H460-Lung”. For DVPGVRF, the “Cell Line with which the peptide” value was “EKVX-Lung”.

For GLVGWGI, the “Cell Line the peptide is associated with (peptide recovered from phage library selection on this NCI-60 cell line)” value was “BT-549 Breast”.

In the case of RAGSRYI, the “Cell Line (NCI-60 cell line the peptide and its motif are associated with)” value is on record as “SK-MEL-28 Melanoma”.

With ASLPMLH, the “Cell Line the peptide is associated with (peptide recovered from phage library selection on this NCI-60 cell line)” value is “ACHN Renal”.

Regarding LGGRADF, the “Cell Line with which the peptide” value is given as “CCRF-CEM Leukemia”.

For VLSAVSS, the “Cell Line (NCI-60 cell line the peptide is associated with)” value is “SNB-19 CNS; also recorded: SF-539 CNS”. As to VRLTGVR, the “Cell Line (NCI-60 cell line the peptide and its motif are associated with)” value is recorded as “SK-OV-3-3 Ovarian”. MRYELRS: the “Cell Line the peptide is associated with (peptide recovered from phage library selection on this NCI-60 cell line)” value was “SN12C Renal”.

On to GAGRGDR, for which the “Cell Line (NCI-60 cell line the peptide is associated with)” value was “SF-295 CNS”. Regarding GGRSWVN, the “Cell Line with which the peptide” value is “RPMI-8226-Leukemia”. For RLLSAFG, the “Cell Line (NCI-60 cell line the peptide is associated with)” value was “HCT-15 Colon”. With SLYGLRW, the “Cell Line (NCI-60 cell line the peptide and its motif are associated with)” value was “M14 Melanoma”.

On to RGARVSA, for which the “Cell Line with which the peptide” value is “Molt-4-Leukemia”. With VMDRGVA, the “Cell Line (NCI-60 cell line the peptide and its motif are associated with)” value was “UACC 257 Melanoma”. Consider GSGVRVS, for which the “Cell Line (NCI-60 cell line the peptide and its motif are associated with)” value was “SK-MEL-28 Melanoma”.

For LIHAGGQ, the “Cell Line the peptide is associated with (peptide recovered from phage library selection on this NCI-60 cell line)” value was “ACHN Renal”. As for VLFSAGS, the “Cell Line with which the peptide” value is on record as “K-562-Leukemia”.

Take LYLLSSA: the “Cell Line (NCI-60 cell line the peptide and its motif are associated with)” value was “SK-MEL-5 Melanoma”. For the substance DLRRAGS, the “Cell Line (NCI-60 cell line the peptide is associated with)” value is recorded as “SW620-Colon”.

Consider GEVGLGV, for which the “Cell Line (NCI-60 cell line the peptide is associated with)” value is on record as “HT-29 Colon”.

For GSSYSGP, the “Cell Line (NCI-60 cell line the peptide is associated with)” value is “HCT-116 Colon”.

Take LGQCGRV: the “Cell Line with which the peptide” value is on record as “HL-60-Leukemia”.

On to YYGERSS, for which the “Cell Line (NCI-60 cell line the peptide and its motif are associated with)” value is recorded as “OVCAR-5 Ovarian”. GLVASMP: the “Cell Line (NCI-60 cell line the peptide and its motif are associated with)” value is on record as “IGROV1 Ovarian”.

As to GVWLRGS, the “Cell Line the peptide is associated with (peptide recovered from phage library selection on this NCI-60 cell line)” value is on record as “RXF393 Renal”.

Take SGIGSGG: the “Cell Line with which the peptide” value is reported as “Hop-92-Lung”. As for WGVAGLG, the “Cell Line (NCI-60 cell line the peptide is associated with)” value was “HT-29 Colon”.

With MRGSGRN, the “Cell Line (NCI-60 cell line the peptide is associated with)” value is listed as “KM-12C Colon”. For the substance LRVGXPG, the “Cell Line the peptide is associated with (peptide recovered from phage library selection on this NCI-60 cell line)” value is listed as “NCI/ADR-RES Breast”. As for PLRVDNL, the “Cell Line with which the peptide” value is listed as “H23-Lung”.

FVGRVGE: the “Cell Line the peptide is associated with (peptide recovered from phage library selection on this NCI-60 cell line)” value is reported as “A498 Renal”. RASFRAG: the “Cell Line with which the peptide” value is “SR Leukemia”. SRFRVSI: the “Cell Line with which the peptide” value was “CCRF-CEM Leukemia”.

On to SLLRRLE, for which the “Cell Line the peptide is associated with (peptide recovered from phage library selection on this NCI-60 cell line)” value is reported as “TK-10 Renal”. With ILSDLVS, the “Cell Line the peptide is associated with (peptide recovered from phage library selection on this NCI-60 cell line)” value was “SN12C Renal”. For the substance ARAMGLR, the “Cell Line with which the peptide” value is reported as “Hop-62-Lung”. Regarding SSRPGSS, the “Cell Line with which the peptide” value is reported as “Hop-62-Lung”.

Regarding RAAVGAR, the “Cell Line with which the peptide” value is given as “H23-Lung”. With GYLGRLP, the “Cell Line the peptide is associated with (peptide recovered from phage library selection on this NCI-60 cell line)” value is given as “NCI/ADR-RES Breast”. Regarding FMTYGSG, the “Cell Line (NCI-60 cell line the peptide and its motif are associated with)” value is given as “OVCAR-4 Ovarian”. On to DAGSDRR, for which the “Cell Line with which the peptide” value was “EKVX-Lung”. Same read-out and setting: the value for RYSTLLR was “K-562-Leukemia”.

Take EAVSGRR: the “Cell Line the peptide is associated with (peptide recovered from phage library selection on this NCI-60 cell line)” value is given as “HS 578 T Breast”. EGLVVFE: the “Cell Line (NCI-60 cell line the peptide is associated with)” value is recorded as “SNB-19 CNS; also recorded: SF-539 CNS”.

As for LLRSVGY, the “Cell Line (NCI-60 cell line the peptide and its motif are associated with)” value is “DU-145 Prostate”. For EGTSGSV, the “Cell Line (NCI-60 cell line the peptide is associated with)” value is recorded as “KM-12C Colon”. Consider PTGAGLL, for which the “Cell Line (NCI-60 cell line the peptide and its motif are associated with)” value is on record as “IGROV1 Ovarian”.

With ASLSVVI, the “Cell Line the peptide is associated with (peptide recovered from phage library selection on this NCI-60 cell line)” value was “UO31 Renal”. For the substance ALVSFSV, the “Cell Line with which the peptide” value is “EKVX-Lung”. Consider VGVRFSR, for which the “Cell Line (NCI-60 cell line the peptide and its motif are associated with)” value is “SK-MEL-28 Melanoma”. In the case of TDLAGLH, the “Cell Line with which the peptide” value is on record as “RPMI-8226-Leukemia”. Turning to LVGRVKL, the “Cell Line (NCI-60 cell line the peptide is associated with)” value was “HT-29 Colon”. For the substance RVVGAVL, the “Cell Line the peptide is associated with (peptide recovered from phage library selection on this NCI-60 cell line)” value is listed as “ACHN Renal”. Consider LLSASLV, for which the “Cell Line with which the peptide” value was “K-562-Leukemia”. Regarding VPPSGGR, the “Cell Line the peptide is associated with (peptide recovered from phage library selection on this NCI-60 cell line)” value is listed as “RXF393 Renal”. On to TRASRRG, for which the “Cell Line (NCI-60 cell line the peptide is associated with)” value is on record as “SNB-75 CNS”. AKAGVSR: the “Cell Line the peptide is associated with (peptide recovered from phage library selection on this NCI-60 cell line)” value is given as “MCF-7 Breast”. For the substance AGWRLSQ, the “Cell Line the peptide is associated with (peptide recovered from phage library selection on this NCI-60 cell line)” value was “CAIK-1 Renal”. As for MITRGRL, the “Cell Line (NCI-60 cell line the peptide is associated with)” value is “HCT-15 Colon”. Take RGRLALL: the “Cell Line (NCI-60 cell line the peptide and its motif are associated with)” value is given as “M14 Melanoma”.

As to VDVGGAG, the “Cell Line (NCI-60 cell line the peptide and its motif are associated with)” value is 786-0 Renal. As to ARLLRGG, the “Cell Line (NCI-60 cell line the peptide and its motif are associated with)” value is recorded as “DU-145 Prostate”. Take WQVALRS: the “Cell Line (NCI-60 cell line the peptide is associated with)” value was “HT-29 Colon”. For the substance SHRSSTG, the “Cell Line the peptide is associated with (peptide recovered from phage library selection on this NCI-60 cell line)” value is “T-47D Breast”. On to GLVGFTG, for which the “Cell Line with which the peptide” value was “Hop-62-Lung”. As for LVSVWSR, the “Cell Line (NCI-60 cell line the peptide is associated with)” value is “HCT-15 Colon”. Consider GASLTGD, for which the “Cell Line with which the peptide” value is recorded as “H460-Lung”. Consider WGAGLDA, for which the “Cell Line (NCI-60 cell line the peptide and its motif are associated with)” value is “OVCAR-4 Ovarian”. Take FAAGAGS: the “Cell Line (NCI-60 cell line the peptide and its motif are associated with)” value is 786-0 Renal. Regarding RLRVSVR, the “Cell Line the peptide is associated with (peptide recovered from phage library selection on this NCI-60 cell line)” value was “CAIK-1 Renal”. In the case of GAGSSVW, the “Cell Line the peptide is associated with (peptide recovered from phage library selection on this NCI-60 cell line)” value is reported as “CAIK-1 Renal”. Regarding GRVPTVV, the “Cell Line (NCI-60 cell line the peptide is associated with)” value is on record as “KM-12C Colon”. In the case of GPSFDAK, the “Cell Line the peptide is associated with (peptide recovered from phage library selection on this NCI-60 cell line)” value is reported as “RXF393 Renal”.

The values above are taken from patent US7781565B2 (priority 2006, dated 2010).
